Results: patent US9834525B2, “Inhibitors of paxillin function and related compositions and methods” (UNIVERSITY OF TENNESSEE RESEARCH FOUNDATION, priority 2015, dated 2017)
“Also recorded” adds a separate entry of the source.

Key:
Type in all cases: cell-based, human
[1] = test system: retinal endothelial cells (REC); assay: transwell (Boyden chamber) cell migration assay, VEGF-stimulated RECs; conditions: 24 hours of VEGF stimulation; +100, +500 nM
Procedure: Two methods of evaluating VEGF-induced REC migration were used to assess the impact of compound (II-4) on paxillin-mediated migration: the scratch assay and the transwell (Boyden chamber) cell migration assay. To test if paxillin inhibition would reduce VEGF-induced REC migration, RECs were wounded and treated with VEGF ([…]) +/− compound (II-4) ([…]). Wound closure was monitored by phase microscopy over 24 hours and area of wound closure was calculated using the sophisticated image analysis tools in Adobe Photoshop. Cells were then fixed and nuclei were stained using DAPI to show extent of cell migration.
Compound (II-4) was further investigated around these concentrations using the transwell migration assay (FIG. 17B).
FIG. 17: REC migration. A) Increasing concentrations of compound (II-4) inhibit VEGF-induced migration in a scratch wound assay; [Serum Free-control, VEGF (100 ng/mL), VEGF+100 nM, 500 nM, 10 μM, 100 μM] (IC50≈180 ηM; n=6/group). Cells were stained with DAPI for representative images. B) RECs seeded onto transwell membranes were stimulated with VEGF+ vehicle or compound (II-4) for 24 hrs. Cells were removed from the topside of membrane and migrated cells were stained with DAPI [Serum-Free (SF), VEGF, +100, +500 nM, respectively]. Cell number was measured using fluorescence microscopy. All data are mean±SD (*, # P<0.001)

92.1 cell line = assay: CFSE cellular proliferation, 92.1; conditions: 96 hrs culture, 1 μM for the last 24 hrs
Procedure: Harvested cells were resuspended at a concentration of 1.0×10^6 cells/mL in warm PBS/1% FBS. Cells were labeled with […] (Invitrogen) for 5 minutes at 37° C. then quenched on cold growth media (final volume 20 mL) for 10 minutes, twice. Cultured unlabeled cells were used as controls.
To test the hypothesis that inhibition of paxillin will reduce cellular proliferation UM cell lines were labeled with carboxyfluorescein succunimidyl ester (CFSE), a cell tracking dye, and cultured for 96 hrs. A group of cells received treatment with compound (II-4) for the last 24 hours. Maximum CFSE fluorescence was controlled using labeled cells prior culture −0 hr. Negative control was established using unlabeled cells cultured in parallel. Histograms in FIG. 15D show 96 hrs cultured cells divided with a 1-log shift or reduction in CFSE intensity. […] Cell proliferation was not affected in the 92.1 cell line. […]
FIG. 15: The paxillin inhibitor Compound (II-4) selectively affects cellular proliferation of primary UM cells that become metastatic. […] Unlabeled cells were used to control fluorescence. […] B. Quantitation of experiment +/−SD including primary UM that becomes metastatic (Mel 270), metastatic (OMM 2.1) and primary (92.1) UM cells. *P=0.0007 and **P=0.0005. […] Quantitation of VLA-4 protein levels +/−SD from n=3. […]

AKT (Ser473) = assay: Western blot of VEGF-induced AKT phosphorylation in REC; conditions: REC under VEGF; compound (II-4) 500 nM, SU6656 1 μM
Procedure: REC, Mel 270, OMM 2.5 under Hepatocyte Growth Factor (HGF) or Vascular Endothelial Growth Factor (VEGF) stimulation conditions: Cell lysates were collected in RIPA lysis buffer (50 mM Tris-HCl, pH 7.4, 150 mM NaCl, 2 mM EDTA, 1% Nonidet P-40, 0.1% SDS) with protease 1× inhibitor cocktail (Roche; Indianapolis, Ind.). Lysates were kept on ice and centrifuged at 10,000×g×10 minutes and total protein was measured using the BCA assay (Pierce, Rockford, Ill.). Protein samples were mixed with 4×LDS loading buffer with 2.5% 2-mercaptoethanol (Sigma-Aldrich), heated to 70° C. for 10 minutes, and loaded on NuPAGE 4-12% Bis-Tris gel (Invitrogen, Carlsbad, Calif.). Immunoblotting was performed with nitrocellulose membranes (Bio-Rad, Hercules, Calif.) at 170-mA start and 110-mA end at 25 V for two hours in NuPAGE transfer buffer (Invitrogen) containing 20% methanol. Membranes were blocked using Odyssey blocking buffer (LI-COR; Lincoln, Nebr.) for one hour at room temperature with gentle shaking Membranes were then incubated at 4° C. with specific primary antibodies (1:1000) overnight. Cellular protein was normalized using rabbit-GAPDH or mouse-α-Tubulin [1:20,000] (Cell Signaling, Danvers, Mass.; LI-COR, respectively). […] Dual-channel infrared scan and quantitation of immunoblots were conducted using the ODYSSEY Sa infrared imaging system with Image Studio (Ver. 3.1.4) (LI-COR). […]

SMILES: COc1cc(C2OC(=O)Nc3c2ccc2ccccc32)cc(OC)c1OC (stereo not drawn) [compound II-4]
- migration of RECs in transwell migration assay [1]: significant decrease
- cell proliferation (CFSE) (92.1 cell line): not affected
- VEGF-induced activation of AKT (P-AKT Ser473) (AKT (Ser473)): able to prevent; also recorded: reduced
